Reference: ChEMBL document CHEMBL5608259 (J Med Chem, 2024)
Calls of active or inactive are those of the source. The calls are words filed in the database; no cut-off is given here.

Key:
[1] = target: T1, Protein arginine N-methyltransferase 3 (Homo sapiens, UniProt O60678); test: Inhibition of human PRMT3 using H4-21peptide as substrate at 10 uM incubated for 10 mins by fluorescence based analysis relative to control
Target sequence in this assay (O60678 2-531 limits assumed): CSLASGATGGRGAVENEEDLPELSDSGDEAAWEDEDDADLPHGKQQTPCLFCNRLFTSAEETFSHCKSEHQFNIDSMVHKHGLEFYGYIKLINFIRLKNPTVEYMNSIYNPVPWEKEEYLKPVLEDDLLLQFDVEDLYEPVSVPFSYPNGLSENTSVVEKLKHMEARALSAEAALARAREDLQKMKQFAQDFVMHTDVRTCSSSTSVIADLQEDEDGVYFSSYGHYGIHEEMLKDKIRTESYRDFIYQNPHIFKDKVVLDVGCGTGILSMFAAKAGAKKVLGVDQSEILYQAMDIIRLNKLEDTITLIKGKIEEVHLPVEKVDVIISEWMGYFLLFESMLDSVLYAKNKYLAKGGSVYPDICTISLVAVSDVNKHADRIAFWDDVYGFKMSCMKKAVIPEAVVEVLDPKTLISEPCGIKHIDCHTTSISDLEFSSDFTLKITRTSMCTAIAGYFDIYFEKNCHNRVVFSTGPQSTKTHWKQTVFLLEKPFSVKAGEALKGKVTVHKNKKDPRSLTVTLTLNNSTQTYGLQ

[2] = target: T2, Histone-arginine methyltransferase CARM1 (Homo sapiens) (UniProt Q86X55); test: Inhibition of human PRMT4 using histone H3 as substrate and SAM as cofactor at 10 uM by radiometric HotSpot assay relative to control
T2 sequence (whole entry): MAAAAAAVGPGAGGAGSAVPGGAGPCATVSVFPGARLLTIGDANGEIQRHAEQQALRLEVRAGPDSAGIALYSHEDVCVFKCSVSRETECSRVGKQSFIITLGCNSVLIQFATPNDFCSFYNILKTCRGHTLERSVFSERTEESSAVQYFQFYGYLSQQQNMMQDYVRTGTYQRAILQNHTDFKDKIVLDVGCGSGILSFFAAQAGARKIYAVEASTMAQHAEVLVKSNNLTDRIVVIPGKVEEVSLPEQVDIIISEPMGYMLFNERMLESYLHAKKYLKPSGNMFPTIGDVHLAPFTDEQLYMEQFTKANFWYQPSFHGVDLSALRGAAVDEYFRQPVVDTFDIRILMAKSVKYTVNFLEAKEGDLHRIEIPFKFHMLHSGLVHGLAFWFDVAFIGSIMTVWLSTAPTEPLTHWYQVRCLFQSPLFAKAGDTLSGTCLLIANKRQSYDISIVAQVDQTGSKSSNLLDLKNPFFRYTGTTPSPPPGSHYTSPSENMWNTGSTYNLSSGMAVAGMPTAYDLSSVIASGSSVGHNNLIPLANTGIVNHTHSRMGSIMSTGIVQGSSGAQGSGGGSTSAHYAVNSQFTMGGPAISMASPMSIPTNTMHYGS

[3] = target: T3, Protein arginine N-methyltransferase 6 (Homo sapiens, UniProt Q96LA8); test: Inhibition of human PRMT6 using GST-GAR as substrate and SAM as cofactor at 10 uM by radiometric HotSpot assay relative to control
Target sequence in this assay (Q96LA8 whole entry, looked up): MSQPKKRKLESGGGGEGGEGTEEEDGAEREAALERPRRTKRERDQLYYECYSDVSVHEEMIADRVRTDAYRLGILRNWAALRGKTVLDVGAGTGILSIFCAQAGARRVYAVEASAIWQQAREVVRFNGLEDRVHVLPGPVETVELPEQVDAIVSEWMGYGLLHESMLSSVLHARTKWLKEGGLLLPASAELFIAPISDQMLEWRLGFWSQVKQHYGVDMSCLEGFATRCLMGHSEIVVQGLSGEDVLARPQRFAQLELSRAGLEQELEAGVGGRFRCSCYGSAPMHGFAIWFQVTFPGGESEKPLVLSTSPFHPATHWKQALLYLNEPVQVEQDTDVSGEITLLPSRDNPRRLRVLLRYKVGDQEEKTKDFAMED

[4] = target: T4, Protein arginine N-methyltransferase 8 (Homo sapiens, UniProt Q9NR22); test: Inhibition of human PRMT8 using Histone H4 as substrate and SAM as cofactor at 10 uM by radiometric HotSpot assay relative to control
Target sequence in this assay (Q9NR22 2-394 limits assumed): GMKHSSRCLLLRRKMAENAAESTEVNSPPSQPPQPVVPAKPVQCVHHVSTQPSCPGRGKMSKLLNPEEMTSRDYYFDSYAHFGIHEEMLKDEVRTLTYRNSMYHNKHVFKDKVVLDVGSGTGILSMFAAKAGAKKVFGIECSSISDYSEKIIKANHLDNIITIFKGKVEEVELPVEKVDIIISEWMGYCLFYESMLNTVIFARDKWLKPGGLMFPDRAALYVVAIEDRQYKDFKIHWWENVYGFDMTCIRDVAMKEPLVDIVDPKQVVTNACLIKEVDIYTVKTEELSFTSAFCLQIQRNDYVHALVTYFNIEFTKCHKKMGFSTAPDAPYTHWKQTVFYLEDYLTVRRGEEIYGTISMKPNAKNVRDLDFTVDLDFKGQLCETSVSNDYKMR

[5] = target: T5, Histone-arginine methyltransferase CARM1 (Homo sapiens, UniProt Q86X55); test: Inhibition of human PRMT4 using histone H3 as substrate and SAM as cofactor by radiometric HotSpot assay
T5 sequence (Q86X55 whole entry): T2 sequence (whole entry)

[6] = target: T6, Protein arginine N-methyltransferase 1 (Homo sapiens, UniProt Q99873); test: Inhibition of human PRMT1 using H4-21peptide as substrate at 10 uM incubated for 10 mins by fluorescence based analysis relative to control
Target sequence in this assay (Q99873 whole entry, looked up): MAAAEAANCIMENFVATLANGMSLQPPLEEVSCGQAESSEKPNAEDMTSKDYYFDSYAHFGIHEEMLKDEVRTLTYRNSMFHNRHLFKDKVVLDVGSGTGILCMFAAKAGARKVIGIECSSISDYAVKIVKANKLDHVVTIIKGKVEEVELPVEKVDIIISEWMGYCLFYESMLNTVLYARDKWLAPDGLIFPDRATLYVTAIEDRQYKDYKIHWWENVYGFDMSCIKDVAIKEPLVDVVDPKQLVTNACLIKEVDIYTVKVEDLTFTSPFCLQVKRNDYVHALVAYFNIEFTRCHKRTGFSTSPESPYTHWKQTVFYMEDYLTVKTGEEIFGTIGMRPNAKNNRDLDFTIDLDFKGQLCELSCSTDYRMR

[7] = target: T6, Protein arginine N-methyltransferase 1; test: Inhibition of human PRMT1 using Histone H4 as substrate and SAM as cofactor by radiometric HotSpot assay
Target sequence in this assay (Q99873 whole entry): as the sequence (Q99873 whole entry, looked up) above

[8] = target: PRMT5/MEP50 complex (Homo sapiens, UniProt O14744); test: Inhibition of human PRMT5/MEP50 using Histone H2 as substrate and SAM as cofactor by radiometric HotSpot assay; format: protein-complex assay
[9] = target: T1, Protein arginine N-methyltransferase 3; test: Inhibition of human PRMT3 using Histone H3 as substrate and SAM as cofactor by radiometric HotSpot assay
Target sequence in this assay (O60678 whole entry): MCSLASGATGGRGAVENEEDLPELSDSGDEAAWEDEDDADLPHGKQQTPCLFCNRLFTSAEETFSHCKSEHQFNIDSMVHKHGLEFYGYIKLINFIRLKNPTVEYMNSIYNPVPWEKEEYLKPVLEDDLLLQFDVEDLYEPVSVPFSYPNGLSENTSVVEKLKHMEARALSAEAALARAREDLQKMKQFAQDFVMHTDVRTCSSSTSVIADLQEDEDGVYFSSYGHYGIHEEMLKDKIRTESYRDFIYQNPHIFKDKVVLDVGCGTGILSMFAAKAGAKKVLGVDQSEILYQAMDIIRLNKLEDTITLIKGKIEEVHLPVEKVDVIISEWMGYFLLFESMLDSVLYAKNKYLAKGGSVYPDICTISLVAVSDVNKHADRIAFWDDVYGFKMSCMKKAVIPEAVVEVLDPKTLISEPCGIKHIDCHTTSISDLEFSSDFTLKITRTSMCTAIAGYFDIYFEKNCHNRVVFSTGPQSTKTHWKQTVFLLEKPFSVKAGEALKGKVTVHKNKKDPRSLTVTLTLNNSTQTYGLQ

[10] = target: T7, Protein arginine N-methyltransferase 7 (Homo sapiens, UniProt Q9NVM4); test: Inhibition of human PRMT7 using GST-GAR as substrate and SAM as cofactor by radiometric HotSpot assay
T7 sequence (Q9NVM4 whole entry): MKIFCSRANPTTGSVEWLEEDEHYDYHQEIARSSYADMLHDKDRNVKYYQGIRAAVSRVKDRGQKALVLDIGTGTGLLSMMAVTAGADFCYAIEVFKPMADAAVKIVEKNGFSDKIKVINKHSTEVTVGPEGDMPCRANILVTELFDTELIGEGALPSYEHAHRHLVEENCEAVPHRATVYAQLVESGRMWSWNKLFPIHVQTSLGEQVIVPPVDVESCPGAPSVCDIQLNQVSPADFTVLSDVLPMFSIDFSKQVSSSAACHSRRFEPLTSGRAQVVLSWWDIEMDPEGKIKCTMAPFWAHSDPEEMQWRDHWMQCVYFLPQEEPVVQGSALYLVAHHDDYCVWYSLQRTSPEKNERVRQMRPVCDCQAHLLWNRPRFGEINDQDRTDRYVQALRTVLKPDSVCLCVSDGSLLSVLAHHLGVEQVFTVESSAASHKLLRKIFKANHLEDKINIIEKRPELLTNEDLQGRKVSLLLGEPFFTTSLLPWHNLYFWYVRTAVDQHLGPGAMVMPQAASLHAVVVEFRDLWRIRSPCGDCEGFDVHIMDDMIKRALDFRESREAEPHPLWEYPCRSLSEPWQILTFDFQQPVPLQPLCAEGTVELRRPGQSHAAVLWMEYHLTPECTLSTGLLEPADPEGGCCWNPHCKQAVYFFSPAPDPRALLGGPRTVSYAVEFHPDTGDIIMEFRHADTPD

[11] = target: T4, Protein arginine N-methyltransferase 8; test: Inhibition of human PRMT8 using Histone H4 as substrate and SAM as cofactor by radiometric HotSpot assay
Target sequence in this assay (Q9NR22 whole entry): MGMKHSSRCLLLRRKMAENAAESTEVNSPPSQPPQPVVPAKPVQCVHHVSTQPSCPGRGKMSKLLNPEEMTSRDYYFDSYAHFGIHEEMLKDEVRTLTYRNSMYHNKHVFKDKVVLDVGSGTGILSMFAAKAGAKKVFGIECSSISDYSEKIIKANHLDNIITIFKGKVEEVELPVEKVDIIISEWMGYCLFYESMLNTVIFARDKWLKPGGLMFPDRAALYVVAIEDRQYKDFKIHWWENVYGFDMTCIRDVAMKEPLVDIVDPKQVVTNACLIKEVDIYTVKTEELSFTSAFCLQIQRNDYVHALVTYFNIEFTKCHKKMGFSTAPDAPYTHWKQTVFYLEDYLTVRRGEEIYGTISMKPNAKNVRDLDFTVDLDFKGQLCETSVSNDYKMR

[12] = tested on: MDA-MB-231; test: Inhibition of colony formation in human MDA-MB-231 cells at 10 uM incubated for 2 weeks by crystal violet staining based analysis relative to control; format: functional; settings: MDA-MB-231, 336 h
[13] = target: PRMT5/MEP50 complex (Homo sapiens) (UniProt O14744+Q9BQA1); test: Inhibition of human PRMT5/MEP50 using Histone H2 as substrate and SAM as cofactor at 10 uM by radiometric HotSpot assay relative to control; format: protein-complex assay
[14] = Permeability of the compound by PAMPA method; format: ADME; settings: read-out: permeability
[15] = target: T3, Protein arginine N-methyltransferase 6; test: Inhibition of PRMT6 (unknown origin)
Target sequence in this assay (Q96LA8 whole entry): as the sequence (Q96LA8 whole entry, looked up) above

Sequence of PRMT5/MEP50 complex (O14744 whole entry): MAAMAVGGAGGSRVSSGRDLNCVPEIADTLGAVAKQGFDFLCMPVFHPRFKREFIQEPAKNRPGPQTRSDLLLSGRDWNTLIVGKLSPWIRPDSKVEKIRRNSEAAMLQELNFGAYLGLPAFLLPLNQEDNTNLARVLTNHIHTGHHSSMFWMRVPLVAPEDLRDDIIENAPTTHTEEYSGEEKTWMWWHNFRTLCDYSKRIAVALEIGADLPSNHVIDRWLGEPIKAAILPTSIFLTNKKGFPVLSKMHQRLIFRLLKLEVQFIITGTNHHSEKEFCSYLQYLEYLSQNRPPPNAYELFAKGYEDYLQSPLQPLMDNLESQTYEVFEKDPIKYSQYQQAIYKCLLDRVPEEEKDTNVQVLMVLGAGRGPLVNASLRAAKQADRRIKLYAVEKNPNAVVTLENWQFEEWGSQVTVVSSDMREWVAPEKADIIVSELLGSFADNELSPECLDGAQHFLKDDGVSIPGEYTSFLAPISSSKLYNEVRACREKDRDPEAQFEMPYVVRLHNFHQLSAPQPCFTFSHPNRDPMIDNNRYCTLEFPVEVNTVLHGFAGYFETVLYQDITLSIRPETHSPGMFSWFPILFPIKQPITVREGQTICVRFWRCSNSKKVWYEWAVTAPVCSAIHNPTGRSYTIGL
Sequence of PRMT5/MEP50 complex (Q9BQA1 whole entry, further chain): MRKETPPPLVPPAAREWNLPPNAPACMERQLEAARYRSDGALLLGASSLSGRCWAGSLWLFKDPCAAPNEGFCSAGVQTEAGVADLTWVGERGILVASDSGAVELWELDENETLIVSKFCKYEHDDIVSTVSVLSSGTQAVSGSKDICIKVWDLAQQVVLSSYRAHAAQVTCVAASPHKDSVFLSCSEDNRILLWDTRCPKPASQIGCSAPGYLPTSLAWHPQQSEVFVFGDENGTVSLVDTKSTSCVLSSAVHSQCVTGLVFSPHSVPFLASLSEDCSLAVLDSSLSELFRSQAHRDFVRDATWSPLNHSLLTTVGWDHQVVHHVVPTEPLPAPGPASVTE

SMILES	inhibition [1] [%]	inhibition [2]	inhibition [3]	inhibition [4] [%]	inhibition [6]	also measured
N=C(NCCCSC[C@H]1O[C@@H](n2cnc3c(NCCCc4ccccc4)ncnc32)[C@H](O)[C@@H]1O)NC1CCCC1	< 30	Active	Active	70	Active	
N=C(N)NCCC[C@H](N)C(=O)NCC(=O)N[C@@H](CCCN)C(=O)N[C@@H](CCCNC(=N)NCCCSC[C@H]1O[C@@H](n2cnc3c(N)ncnc32)[C@H](O)[C@@H]1O)C(=O)O						IC50 [5]: 2.8 nM; IC50 [7]: 5900 nM; IC50 [8]: 0.42 nM; IC50 [9]: > 10000 nM; IC50 [10]: 8300 nM; IC50 [11]: > 10000 nM
N=C(NCCCSC[C@H]1O[C@@H](n2cnc3c(NCCCc4ccccc4)ncnc32)[C@H](O)[C@@H]1O)Nc1ccccc1	< 30	Active	Active	70	Active	
N=C(NCCCSC[C@H]1O[C@@H](n2cnc3c(NCCCc4ccccc4)ncnc32)[C@H](O)[C@@H]1O)NCCc1ccccc1	< 30	Active	Active	70	Active	
CNC[C@@H](O)COc1ccc(Cl)c(-c2nc(-c3c(C)noc3C)c(C)c(N3CC4(CCN(C(=O)OC)CC4)C3)n2)c1						inhibition at 10 µM [12]: 30%
N=C(NCCCSC[C@H]1O[C@@H](n2cnc3c(NCCCc4ccccc4)ncnc32)[C@H](O)[C@@H]1O)NCC1CC1	< 30	Active	Active	70	Active	
N=C(NCCCSC[C@H]1O[C@@H](n2cnc3c(NCCCc4ccccc4)ncnc32)[C@H](O)[C@@H]1O)NCc1ccccc1	< 30	Active	Active	70	Active	
CNCCN1CCC(c2cc(CN(C)C(=O)c3cccc(Oc4ccccc4)c3)ccn2)CC1						inhibition at 10 µM [12]: 30%
N=C(NCCCSC[C@H]1O[C@@H](n2cnc3c(NCCCc4ccccc4)ncnc32)[C@H](O)[C@@H]1O)NCCCc1ccccc1	< 30	Active	Active	70	Active	
N=C(NCCCSC[C@H]1O[C@@H](n2cnc3c(NCCCc4ccccc4)ncnc32)[C@H](O)[C@@H]1O)NC1CC1	< 30	Active	Active	70	Active	
N=C(NCCCSC[C@H]1O[C@@H](n2cnc3c(NCCCc4ccccc4)ncnc32)[C@H](O)[C@@H]1O)NC1CCC1	< 30	Active	Active	70	Active	
N=C(NCCCO)NCCCSC[C@H]1O[C@@H](n2cnc3c(NCCCc4ccccc4)ncnc32)[C@H](O)[C@@H]1O	< 30	Active	Active	70	Active	
N=C(NCCCSC[C@H]1O[C@@H](n2cnc3c(NCCCc4ccccc4)ncnc32)[C@H](O)[C@@H]1O)NC1CCCCC1	< 30	Active	Active	70	Active	
N=C(NCCCN)NCCCSC[C@H]1O[C@@H](n2cnc3c(NCCCc4ccccc4)ncnc32)[C@H](O)[C@@H]1O	< 30	Active	Active	70	Active	
CCCCNC(=N)NCCCSC[C@H]1O[C@@H](n2cnc3c(NCCCc4ccccc4)ncnc32)[C@H](O)[C@@H]1O	< 30	Active	Active	70	Active	

Now from value to compound, other results behind:

inhibition [1] [%]	inhibition [2]	inhibition [3]	inhibition [4] [%]	inhibition [6]	SMILES	also measured
< 30	> 90%	50%	> 50		Nc1ncnc2c1ncn2[C@@H]1O[C@H](CSCCNCc2cccc(-c3cncnc3)c2)[C@@H](O)[C@H]1O	IC50 [5]: 9.3 nM
3	27%	70%	< 30	< 50%	Nc1ncnc2c1ncn2[C@@H]1O[C@H](CSCCCNC(=O)NCc2ccc3c(c2)OCO3)[C@@H](O)[C@H]1O	
> 50	> 90%	70%	< 30	< 50%	Nc1ncnc2c1ncn2[C@@H]1O[C@H](CSCCNC(=O)NCc2ccccc2)[C@@H](O)[C@H]1O	
3	27%	70%	< 30	< 50%	Nc1cccc(-c2ccc(CNC(=O)NCCSC[C@H]3O[C@@H](n4cnc5c(N)ncnc54)[C@H](O)[C@@H]3O)cc2)c1	
		50%	> 50		Nc1ncnc2c1ncn2[C@@H]1O[C@H](CSCCNCc2cccc(Br)c2)[C@@H](O)[C@H]1O	inhibition [13]: 75%; Papp [14]: 0.3 ×10⁻⁶ cm/s
< 30	> 90%	50%	> 50		Nc1ncnc2c1ncn2[C@@H]1O[C@H](CSCCNCc2cccc(-c3ccoc3)c2)[C@@H](O)[C@H]1O	IC50 [5]: 1.2 nM
3	27%	70%	< 30	< 50%	Nc1ccc(-c2ccc(CNC(=O)NCCSC[C@H]3O[C@@H](n4cnc5c(N)ncnc54)[C@H](O)[C@@H]3O)cc2)cc1	
3	27%	70%	< 30	< 50%	Nc1ncnc2c1ncn2[C@@H]1O[C@H](CSCCNC(=O)NCc2ccc(-c3cccc(O)c3)cc2)[C@@H](O)[C@H]1O	
< 30	> 90%	50%	> 50		Nc1ncnc2c1ncn2[C@@H]1O[C@H](CSCCCNCc2cccc(-c3cncnc3)c2)[C@@H](O)[C@H]1O	IC50 [5]: 49 nM
		> 90%	> 95	> 50%	N=C(NCCSC[C@H]1O[C@@H](n2cnc3c(N)ncnc32)[C@H](O)[C@@H]1O)Nc1ccccc1	IC50 [7]: > 10000 nM; IC50 [8]: 351 nM; IC50 [9]: 321 nM; IC50 [15]: > 10000 nM; IC50 [10]: 2400 nM; IC50 [11]: > 10000 nM
